Source: patent US8603806B2, “Materials and methods for cell-based assays” (The Ohio State Universtiy Research Foundation, priority 2005, dated 2013)
Values after ≈ are worked out from the molar mass of the structure shown. “Also recorded” adds a separate entry of the source. Like-named read-outs stand apart in the source and are kept apart here.

Legend:
[1] = tested on: HT-29-GFP; conditions: for times more resistance in tumor-like structure: compared with the results from 3-D proliferation assays (3-D low density cells); for effectiveness on high density colon cancer cells / time after drug adding at which fluorescence changed: tumor-like constructs
Description: (§1) Colon cancer is the third most frequently occurring cancer in the US and causes large numbers of deaths, second only to lung cancer. Treatment of progressed colon cancer involves surgical extraction combining chemotherapy and immunotherapy. The survival rate of colon cancer patients is only 55% due to the low effectiveness of these therapies. […] Butyric acid is a biological response modifier (BRM) and it acts synergistically with 5-FU against colorectal cancers by decreasing thymidine kinase mRNA. As a BRM, it can also increase cell specific productivity at the expense of inhibiting cell growth. […] In this case, the cytotoxicity of a chemical in 3-D cultures was defined as a concentration range of the chemical.
Gemcitabine is an S-phase specific drug.

[2] = tested on: embryonic stem cell; conditions: embryotoxicity test previously reported; cited from earlier work
[3] = tested on: HT-29; test: Perfusion culture of HT-29 in microfluidic bioreactor array; assay type: cell-based, human; conditions: 2 μg/ml fed continuously from beginning of perfusion; vs control without drug
Description: A human colon cancer cell line HT-29 (ATCC: HTB-38™) was maintained in Dulbecco's Modified Eagle's Medium (DMEM, Gibco) supplemented with 10% fetal bovine serum (FBS, Gibco) in a cell culture incubator at 37° C. with 5% CO2. […] Then cells were diluted and seeded in a 96 well plate at around 5 cells per well. One green fluorescent colony was isolated and expanded in the absence of selective pressure geneticin (G-418, Gibco). The stability of the transfected cell line was verified by FACSCalibur (B-D) (>97%) compared to the negative control.
Before cell culture, the PET matrices were cut to small square patches (2.5 mm×3 mm) and then soaked in water and sterilized in an autoclave at 121° C. for 15 min. […] Then each seeded scaffold was transferred gently to a new well on the same 384-well plate, which was followed by fluorescence intensity measurement in the microplate reader at 485 nm excitation and 535 nm emission. The scaffolds with similar fluorescence intensity were selected and transferred to the wells in the middle two rows of the microbioreactor array. […]
Four 10 mL, syringes were autoclaved and filled with the maintenance media, which were then seated on a syringe pump (PHD 2000, Harvard Apparatus). […] Cell proliferation was analyzed twice a day with the specific plate definition scheme in the microplate reader. […]

[4] = tested on: embryonic stem cell; conditions: embryotoxicity test previously reported; cited from earlier work; remark: listed apart in the source
[5] = tested on: ES cells; test: 3-D high-density ES tissue constructs cytotoxicity; assay type: cell-based; conditions: for Extent of cell kill: 3-D high-density, at maximum dose; for Rf (resistance factor): ratio between EC50 and Ig50; for EC50: 3-D high-density cell cultures, 50% of maximum fluorescence reduction, exposure four or six days after seeding
Description: The effects of various drugs on ES cells grown in 3-D after reaching a high cell density (exposure four or six days after seeding the matrices) were studied and the results are shown in FIG. 14. EC50 (the concentration required for obtaining 50% of a maximum effect) is used to evaluate a drug's cytotoxicity effect on a high-density 3-D cell or tissue construct. Here, if the elimination of cells is considered as the maximum effect of a chemical, an EC50 is not always reached. […] For this case, the maximum effects were defined as the fluorescence reduction caused by the saturation concentration (DM and DPH) or a very high dose compared to doses used in 2-D assays (Penicillin G and 5-FU). In addition, it was also noticed that maximal effects changed along with time, so the time point with the largest value of the maximal effects was used for cytotoxicity definition. Rf (resistance factor) is defined as the ratio between EC50 and Ig50.

[6] = tested on: ES cells; test: 3-D cytotoxicity (proliferation) assay, ES-GFP cells in PET scaffolds, low density; assay type: cell-based; conditions: for IC50: read-out: 3-D cultures Ig50; for Ig50 in 2-D as times of Ig50 in 3-D: ratio 2-D/3-D
Description: For the 3-D cytotoxicity assay, 25000 cells in 25 μl medium were seeded into each PET scaffold. After 6 h incubation to allow cell attachment, 180 μl medium were added to each well and incubated for another 18 h before transferring the seeded matrix to the center of the microbioreactor chamber containing 3 ml of the ES medium on the modified 96-well plate. The plates were then stacked onto a rotational shaker and put into a 37° C. CO2 incubator. The culture fluorescence was measured twice per day with a Cytofluor Series 4000 plate reader. Fluorescence signals from live cells were calculated as the values from the central well of the bioreactor minus the background from the surrounding medium and scaffold.
(§2) With the exponential-phase specific growth rate data, the cytotoxicity of various chemicals can be better evaluated by their Ig50 values defined as the concentration of the chemical causing 50% reduction in the exponential-phase specific cell growth rate.

[7] = tested on: HT-29-GFP
Description: as §1

[8] = tested on: HT-29-GFP; test: HT-29-GFP proliferation assay, 2-D with cell counting; assay type: cell-based; conditions: Homo sapiens, read-out: 2-D with cell counting (Ig50)
Description: as §1

[9] = tested on: ES cells; test: 2-D cytotoxicity assay, ES-GFP cells in 96-well plates; assay type: cell-based; conditions: concentration causing 50% reduction in exponential-phase specific growth rate, drug added one day after inoculation; for IC50: read-out: 2-D cultures Ig50
Description: The 2-D cytotoxicity assay was performed in 96-well plates by inoculating 5000 cells into each well containing 150 μl of ES medium. The drug was added one day after inoculation. Fluorescent signals were measured twice per day in the culture plates. The fluorescence given by live cells was calculated as the signals obtained after replacing culture medium with the same volume of PBS minus the blanks.
as §2

[10] = tested on: ES-GFP cells; test: Acute cytotoxicity live-cell kinetic assay, 3-D ES-GFP; assay type: cell-based; conditions: high density 3-D ES-GFP, 2000 RFU; different doses
Description: For the live-cell kinetic assays, acute cellular events can be easily characterized with online continuous fluorescence measurements without human intervention. The 3-D cell-based assay system was thus applied to test the response of ES-GFP cells to a surfactant, Triton X-100 (Sigma Chemical Company, St. Louis, Mo.). ES-GFP cells in the 3-D system were cultured to reach a high density with 2000 RFU fluorescence intensity. After applying different doses of Triton X-100, the culture plate was immediately put into the plate reader (Cytofluor Series 4000) at 37° C., with the cycle number set at 80 and cycle time at 3 min. The mixing time before each reading was 10 seconds. […] In general, increasing the surfactant concentration in the medium increased cell death, which followed a first order kinetics as indicated by the linear semilogarithmic plot (FIG. 10B). Triton X-100 is a non-ionic detergent commonly used to solubilize membrane proteins. The specific death rate kd at each Triton X-100 concentration can be estimated from the negative slope of the semi-log plots. […] The loss in the fluorescence signal for the control experiment without the surfactant was negligible and the slight decrease could be attributed to a slow increase in the medium pH outside the CO2 incubator. GFP fluorescence is marginally affected by the solution pH when it is in the neutral pH range.

[11] = tested on: ES-GFP cells; test: Effect of fibronectin coating of PET matrix on ES-GFP cell growth; assay type: cell-based
Description: Similarly, ES-GFP cells were used to study the effects of fibronectin coating of the PET matrix on cell growth. Fibronectin is involved in many cellular processes, one of which is to serve as a general cell adhesion molecule to help cells anchor onto proteoglycan or collagen substrates. Fibronectin is a commonly used extracellular matrix protein to enhance cell adhesion on the tissue scaffold. PET matrices were soaked in 10 μg/ml fibronectin (Sigma Chemical Company, St. Louis, Mo.) for 12 hours before use. The fibronectin-coated matrices were then placed in the growth medium and seeded with ES-GFP cells from the top of the scaffolds. […] Also, cells cultured in the fibronectin-coated matrix reached a maximum fluorescence intensity of 4000 RFU that was ˜2.5 times of that without fibronectin coating at 128 h. […] Cell spreading can also stimulate cell proliferation and contributes to uniform cell distribution in the 3-D matrix, which in turn allowed more light emission from the matrix. It is noted that cells developed different morphologies in these two matrices, with large aggregates formed in the matrix without fibronectin coating (FIG. 9D). The formation of large cell aggregates could add additional mass transfer limitation and further reduce cell growth. The adhesion of cells to PET fibers is important to determine the cell growth in the 3-D matrix.

[12] = concentration causing 50% reduction in exponential-phase specific growth rate, drug added one day after seeding

Compound: O=c1[nH]cc(F)c(=O)[nH]1 [5-FU, 5-fluorouracil]
- Tumor-like response assays, cytotoxicity concentration ([1]; human): 10 to 100 µg/mL
- ZEBET IC50 [2]: 0.09 µg/mL
- effect on HT-29 proliferation in perfusion culture [3]: significantly reduced cell proliferation; also recorded: significantly inhibited
- ECVAM IC50 [4]: 0.065 µg/mL
- effect on ES tissue constructs ([5]; 100 μg/ml, 3-D high density): no significant effect
- Extent of cell kill [5]: 20%
- Rf (resistance factor) [5]: >1000
- IC50 [6, 12]: 0.035 µg/mL (≈ 0.269 µM)
- 2-D with fluorescence, cytotoxicity concentration ([7]; human): 0.052 to 0.26 µg/mL
- 3-D with fluorescence, cytotoxicity concentration ([7]; human): 0.26 to 1.3 µg/mL
- IC50 ([8]; HT-29-GFP 2-D): < 0.26 µg/mL
- IC50 [9]: 0.045 µg/mL (≈ 0.346 µM)

Compound: C[C@@H]1C[C@H]2[C@@H]3CCC4=CC(=O)C=C[C@]4(C)[C@@]3(F)[C@@H](O)C[C@]2(C)[C@@]1(O)C(=O)CO [DM, dexamethasone]
- Extent of cell kill [5]: 80.9%
- EC50 ([5]; 144 h, read-out: EC50): 65 µg/mL (≈ 166 µM)
- Rf (resistance factor) [5]: 5.7
- IC50 [6, 12]: 11.5 µg/mL (≈ 29.3 µM)
- Ig50 in 2-D as times of Ig50 in 3-D [6]: 3 times
- IC50 [9]: 32 µg/mL (≈ 81.5 µM)

Compound: O=C1NC(=O)C(c2ccccc2)(c2ccccc2)N1 [DPH, diphenylhydantoin]
- Extent of cell kill [5]: 52.2%
- EC50 ([5]; 144 h, read-out: EC50): 600 µg/mL (≈ 2380 µM)
- Rf (resistance factor) [5]: 15.4
- IC50 [6, 12]: 39 µg/mL (≈ 155 µM)
- IC50 [9]: 30 µg/mL (≈ 119 µM)

Compound: Nc1ccn([C@@H]2O[C@H](CO)[C@@H](O)C2(F)F)c(=O)n1 [Gemcitabine, gemcitabine]
- times more resistance in tumor-like structure [1]: (more than 1000 times
- Tumor-like response assays, cytotoxicity concentration ([1]; human): >1000 µM
- effectiveness on high density colon cancer cells [1]: non-effective)
- effectiveness on high density colon cancer cells ([1]; listed as gemcitabine): totally resistant
- 2-D with fluorescence, cytotoxicity concentration ([7]; human): 0.625 µM
- 3-D with fluorescence, cytotoxicity concentration ([7]; human): 0.001 to 0.005 µM
- IC50 ([8]; HT-29-GFP 2-D): 0.005 µM

Compound: CC1(C)S[C@@H]2[C@H](NC(=O)Cc3ccccc3)C(=O)N2[C@H]1C(=O)O [Penicillin G, penicillin G]
- ZEBET IC50 [2]: 2100 µg/mL
- ECVAM IC50 [4]: 2000 µg/mL
- EC50 [5]: 23000 µg/mL (≈ 68800 µM)
- Extent of cell kill [5]: 62.3%
- Rf (resistance factor) [5]: 30.7
- 3-D cultures Ig50 [6, 12]: 750 µg/mL
- Ig50 in 2-D as times of Ig50 in 3-D [6]: 6 times
- 2-D cultures Ig50 [9]: 4500 µg/mL

Compound: CCCC(=O)[O-].[Na+] [Sodium butyrate, sodium butyrate]
- times more resistance in tumor-like structure [1]: (about 10 times
- times more resistance in tumor-like structure ([1]; listed as sodium butyrate): 10 times
- Tumor-like response assays, cytotoxicity concentration ([1]; drug added at high density): 10000 to 100000 µM
- time after drug adding at which fluorescence changed [1]: changed one day
- time after drug adding at which fluorescence changed ([1]; listed as sodium butyrate): one
- 3-D with fluorescence, cytotoxicity concentration ([7]; 3-D low density, lowest concentration causing significant difference of fluorescent kinetics vs control): 2000 to 8000 µM
- 2-D with fluorescence, cytotoxicity concentration ([7]; lowest concentration causing significant difference of fluorescent kinetics vs control): 8000 to 32000 µM
- IC50 [8]: 2000 µM

Compound: Triton X-100
- acute cellular response (loss in culture fluorescence) [10]: caused an acute cell death

Compound: fibronectin
- specific growth rate ([11]; PET matrices soaked in 10 μg/ml fibronectin, without coating 0.0335): 0.0458 h⁻¹
- maximum fluorescence intensity relative to that without fibronectin coating ([11]; at 128 h): ~2.5 times
- maximum fluorescence intensity ([11]; fibronectin-coated matrix, 128 h): 4000 RFU
- doubling time ([11]; with fibronectin coating, without coating 20.7): 15.1 h
- enhancement of specific growth rate ([11]; with vs without fibronectin coating): 37%
